Where a name gives a salt, the structure may show the parent alone.
Columns and labels:
MDR1 (P-gp) = target: T1, MDR1 (P-gp) (Homo sapiens, UniProt P08183); test: MDR1-MDCK assay (efflux ratio); type: in vitro ADME; conditions: human, MDCK-MDR1, 1 μM compound, 120 minutes incubation; read-out: MDR1-MDCK Efflux Ratio; (B-A/A-B)
T1 construct: host or cells: MDCK cells
Procedure: • The assay makes use of human MDR1 transfected MDCK cells (NIH cell line in-licensed from Absorption Systems) • The compounds are tested at 1 μM concentration prepared in transport buffer (Hank's balanced salt solution with HEPES) • MDR1-MDCK cell are cultured for 7 days in 96 well transwell insert plates (Corning). Insert plates are washed before the assay and TEER (Trans epithelial electric resistance) is measured. • These plates are loaded with test compound solution 85 μL for A-B transport and 260 μL for B-A transport in the respective donor compartment.
Mass balance=100×((Vr×Cr^final)+(Vd×Cd^final))/(Vd×CE) • Where: • dCr/dt is the cumulative concentration in the receiver compartment versus time in μM s^−1 • Vr is the volume of the receiver compartment in cm^3 • Vd is the volume of the donor compartment in cm^3 • A is the area of the insert (0.143 cm^2 for 96-well insert) • CE is the estimated experimental concentration (Time=0) of the dosing solution • Cr^final is the concentration of the receiver at the end of the incubation period • Cd^final is the concentration of the donor at the end of the incubation period.

IRAK4 = target: T2, IRAK4 (Homo sapiens, UniProt Q9NWZ3); test: IRAK4 MSD Biochemical Assay (1 mM ATP, 2 h); conditions: room temperature, read-out: IRAK4 MSD Biochemical Assay (1 mM ATP, 2 h) IC50
T2 construct: with 0.1 nM IRAK4, 1.6 μM of biotinylated peptide substrate and 10 μM ATP
T2 sequence (Q9NWZ3 1-460): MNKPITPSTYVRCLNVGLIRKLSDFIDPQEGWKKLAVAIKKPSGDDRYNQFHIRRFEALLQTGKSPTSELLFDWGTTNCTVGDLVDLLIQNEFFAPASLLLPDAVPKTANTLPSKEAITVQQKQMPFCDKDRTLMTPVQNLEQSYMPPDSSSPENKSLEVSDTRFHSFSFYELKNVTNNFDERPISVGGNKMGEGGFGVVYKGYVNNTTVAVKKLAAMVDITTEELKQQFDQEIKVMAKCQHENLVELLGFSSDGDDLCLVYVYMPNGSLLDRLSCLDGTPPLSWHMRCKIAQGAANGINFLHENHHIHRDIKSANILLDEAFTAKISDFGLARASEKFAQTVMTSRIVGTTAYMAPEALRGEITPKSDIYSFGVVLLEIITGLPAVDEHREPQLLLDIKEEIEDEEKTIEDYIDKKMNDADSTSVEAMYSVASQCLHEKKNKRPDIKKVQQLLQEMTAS
Procedure: The 2-hour 10 μM ATP Biochemical Assay employs a MesoScale Detection (MSD) format.
The activity is quenched with 11 μl of 70 mM EDTA, pH 8.
To detect the phosphorylated biotinylated peptide substrate, 30 μl of the quenched reaction mixture is added to equivalent wells of a 384 well streptavidin coated MesoScale plate (Meso Scale Discovery #L21SA-1). After a 1 hour incubation of the plate for 1 hour at room temperature with gentle mixing, the plate wells are washed 3 times with 50 mM Tris, pH 7.5, 150 mM NaCl, 0.02% Tween-20.
A 25 μl volume of 1:500 anti-P-Threonine Rabbit polyclonal Antibody plus 1:500 Goat-anti-Rabbit Sulfo Tag Antibody (Meso Scale Discovery R32AB-1) in 50 mM Tris, pH 7.5, 150 mM NaCl, 0.02% Tween-20 plus 2% BSA is then added to each well. After a 1-hour incubation of the plate for 1 hour at room temperature with gentle mixing, the plate wells are washed, 3 times with 50 mM Tris, pH 7.5, 150 mM NaCl, 0.02% Tween-20. A 40 μl volume of 2×MSD Read Buffer (Meso Scale Discovery R92TC-1) is added to each well, and the plate is read immediately in an MSD Plate Reader (Meso Scale Discovery).
The 2-hour 1 mM ATP IRAK4 Biochemical assay was performed as described above, but with […] IRAK4 and 1 mM ATP.

T1 sequence (P08183 whole entry): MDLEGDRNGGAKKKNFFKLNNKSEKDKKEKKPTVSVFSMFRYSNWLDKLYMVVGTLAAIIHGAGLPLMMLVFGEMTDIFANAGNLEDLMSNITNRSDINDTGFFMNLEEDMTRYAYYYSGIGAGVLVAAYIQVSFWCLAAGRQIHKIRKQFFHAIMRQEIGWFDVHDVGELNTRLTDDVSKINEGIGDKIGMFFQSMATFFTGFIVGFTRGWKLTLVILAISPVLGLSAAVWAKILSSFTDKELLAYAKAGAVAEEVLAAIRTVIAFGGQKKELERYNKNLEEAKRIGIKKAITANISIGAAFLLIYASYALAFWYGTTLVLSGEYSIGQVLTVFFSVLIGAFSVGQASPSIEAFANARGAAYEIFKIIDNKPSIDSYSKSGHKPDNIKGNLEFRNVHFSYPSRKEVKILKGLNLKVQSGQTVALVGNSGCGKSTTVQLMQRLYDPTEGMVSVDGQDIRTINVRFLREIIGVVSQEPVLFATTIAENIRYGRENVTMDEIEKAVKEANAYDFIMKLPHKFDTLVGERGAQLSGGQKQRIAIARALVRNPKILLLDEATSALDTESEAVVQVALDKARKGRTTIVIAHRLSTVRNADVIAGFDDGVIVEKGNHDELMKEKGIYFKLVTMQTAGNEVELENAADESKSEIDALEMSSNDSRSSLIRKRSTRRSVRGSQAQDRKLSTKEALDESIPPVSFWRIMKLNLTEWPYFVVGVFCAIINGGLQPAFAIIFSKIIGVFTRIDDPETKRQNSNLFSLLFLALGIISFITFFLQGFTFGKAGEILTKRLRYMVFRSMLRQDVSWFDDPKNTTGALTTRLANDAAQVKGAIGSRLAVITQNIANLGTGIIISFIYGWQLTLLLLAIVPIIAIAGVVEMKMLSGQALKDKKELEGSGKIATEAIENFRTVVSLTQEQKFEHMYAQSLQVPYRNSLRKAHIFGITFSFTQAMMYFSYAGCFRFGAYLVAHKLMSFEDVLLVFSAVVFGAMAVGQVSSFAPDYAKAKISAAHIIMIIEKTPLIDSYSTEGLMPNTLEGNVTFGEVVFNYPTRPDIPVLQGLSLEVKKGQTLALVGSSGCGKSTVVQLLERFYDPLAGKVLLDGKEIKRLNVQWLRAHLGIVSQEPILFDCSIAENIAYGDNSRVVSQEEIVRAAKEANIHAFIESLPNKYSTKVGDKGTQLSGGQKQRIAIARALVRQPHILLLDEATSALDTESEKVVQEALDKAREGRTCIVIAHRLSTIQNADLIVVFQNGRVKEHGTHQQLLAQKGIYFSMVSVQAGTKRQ

Row | Structure (SMILES) | efflux ratio at 120 min, 1 μM (MDR1 (P-gp)) | IC50 (IRAK4)
1 | CC(C)Oc1cc2nn([C@@]34CC[C@@](C)(C3)OC4)cc2cc1C(=O)Nc1cccc(C(F)F)n1 (single isomer, unassigned) [Example 126] | 0.5 | 0.2 nM
2 | CC(C)Oc1cc2nn([C@]34CC[C@](C)(C3)OC4)cc2cc1C(=O)Nc1cnn2cccnc12 (single isomer, unassigned) [Example 127] | 1 | 0.4 nM
3 | CC(C)Oc1cc2nn([C@@]34CC[C@@](C)(C3)OC4)cc2cc1C(=O)Nc1cnn2cccnc12 (single isomer, unassigned) [Example 128] | 1.4 | 0.5 nM
4 | Cn1ccc(NC(=O)c2cc3cn(C4CCCOC4)nc3nc2OC2CCC2)n1 (single isomer, unassigned) [Example 129] | 3.4 | 5.7 nM
5 | CC12CCC(n3cc4cc(C(=O)Nc5cnn6cccnc56)c(OC5CCC5)cc4n3)(CO1)C2 (single isomer, unassigned) [Example 137] | 2.1 | 0.2 nM
6 | COc1cccc(NC(=O)c2cc3cn(CC4CCOC4)nc3cc2OC)n1.O=C(O)C(F)(F)F (centres unmarked) [Example 1, 6-Methoxy-N-(6-methoxypyridin-2-yl)-2-((tetrahydrofuran-3-yl)methyl)-2H-indazole-5-carboxamide Trifluoroacetate] | 1.1 | 32.7 nM
7 | COc1cc2nn(CC3CCOC3)cc2cc1C(=O)Nc1ccccn1.O=C(O)C(F)(F)F (centres unmarked) [Example 2, 6-Methoxy-N-(pyridin-2-yl)-2-((tetrahydrofuran-3-yl)methyl)-2H-indazole-5-carboxamide trifluoroacetate] | 1.7 | 373 nM
8 | COc1cccc(NC(=O)c2cc3cn(CC45COC(C)(C4)C5)nc3cc2OC)n1.O=C(O)C(F)(F)F [Example 3, 6-Methoxy-N-(6-methoxypyridin-2-yl)-2-((1-methyl-2-oxabicyclo[2.1.1]hexan-4-yl)methyl)-2H-indazole-5-carboxamide trifluoroacetate] | 0.9 | 10000 nM
9 | COc1cccc(NC(=O)c2cc3cn(C4CCOC4)nc3cc2OC)n1.O=C(O)C(F)(F)F (centres unmarked) [Example 4, 6-Methoxy-N-(6-methoxypyridin-2-yl)-2-(tetrahydrofuran-3-yl)-2H-indazole-5-carboxamide trifluoroacetate] | 0.4 | 3380 nM
10 | COc1cccc(NC(=O)c2cc3cn(CC4CCOC4)nc3cn2)n1.O=C(O)C(F)(F)F (centres unmarked) [Example 7, N-(6-methoxypyridin-2-yl)-2-((tetrahydrofuran-3-yl)methyl)-2H-pyrazolo[3,4-c]pyridine-5-carboxamide Trifluoroacetate] | 0.6 | 1390 nM
11 | COc1cccc(NC(=O)c2cc(C)c3nn(CC4CCOC4)cc3c2)n1.O=C(O)C(F)(F)F (centres unmarked) [Example 9, N-(6-methoxypyridin-2-yl)-7-methyl-2-((tetrahydrofuran-3-yl)methyl)-2H-indazole-5-carboxamide Trifluoroacetate] | 0.5 | 2740 nM
12 | CC(C)Oc1cc2nn(CCC(C)(C)O)cc2cc1C(=O)Nc1cccc(C(F)F)n1 [Example 13, N-(6-(difluoromethyl)pyridin-2-yl)-2-(3-hydroxy-3-methylbutyl)-6-isopropoxy-2H-indazole-5-carboxamide] | 1.7 | 0.4 nM
13 | COc1cccc(NC(=O)c2cc(OC)c3nn(CCC(C)(C)OC)cc3c2)n1.Cl [Example 15, 7-Methoxy-2-(3-methoxy-3-methylbutyl)-N-(6-methoxypyridin-2-yl)-2H-indazole-5-carboxamide hydrochloride] | 2.5 | 124 nM
14 | COCCCn1cc2cc(C(=O)Nc3cccc(C(F)F)n3)c(OC)cc2n1.Cl [Example 17, N-(6-(difluoromethyl)pyridin-2-yl)-6-methoxy-2-(3-methoxypropyl)-2H-indazole-5-carboxamide hydrochloride] | 0.4 | 11.3 nM
15 | COCCCn1cc2cc(C(=O)Nc3cccc(C(F)F)n3)c(OC(C)C)cc2n1.Cl [Example 26, N-(6-(difluoromethyl)pyridin-2-yl)-6-isopropoxy-2-(3-methoxypropyl)-2H-indazole-5-carboxamide hydrochloride] | 0.7 | 0.9 nM

Next, values leading:

Row | efflux ratio at 120 min, 1 μM (MDR1 (P-gp)) | IC50 (IRAK4) | Structure (SMILES)
16 | 0.5 | 0.4 nM | CC(C)Oc1cc2nn([C@]34CC[C@](C)(C3)OC4)cc2cc1C(=O)Nc1cccc(C(F)F)n1 (single isomer, unassigned) [Example 125]
17 | 2.6 | 0.2 nM | Cc1cnc2c(NC(=O)c3cc4cn(C5CCCOC5)nc4nc3OC3CCC3)cnn2c1 (single isomer, unassigned) [Example 131]
18 | 2.6 | 1.7 nM | Cc1ccn2ncc(NC(=O)c3cc4cn(C5CCCOC5)nc4nc3OC3CCC3)c2n1 (single isomer, unassigned) [Example 133]
19 | 0.6 | 21 nM | COc1cccc(NC(=O)c2cc3cn(C4CCOCC4)nc3cc2OC)n1.O=C(O)C(F)(F)F [Example 5, 6-Methoxy-N-(6-methoxypyridin-2-yl)-2-(tetrahydro-2H-pyran-4-yl)-2H-indazole-5-carboxamide trifluoroacetate]
20 | 1.1 | 187 nM | COc1cc2nn(C3CCOCC3)cc2cc1C(=O)Nc1ccccn1.O=C(O)C(F)(F)F [Example 6, 6-Methoxy-N-(pyridin-2-yl)-2-(tetrahydro-2H-pyran-4-yl)-2H-indazole-5-carboxamide trifluoroacetate]
21 | 0.6 | 275 nM | O=C(Nc1cccc(C(F)F)n1)c1cc2cn(CC3CCOC3)nc2cn1 (centres unmarked) [Example 8, N-(6-(difluoromethyl)pyridin-2-yl)-2-((tetrahydrofuran-3-yl)methyl)-2H-pyrazolo[3,4-c]pyridine-5-carboxamide Trifluoroacetate]
22 | 24.4 | 247 nM | COc1cccc(NC(=O)c2cc(OC)c3nn(CCC(C)(C)O)cc3c2)n1.Cl [Example 14, 2-(3-Hydroxy-3-methylbutyl)-7-methoxy-N-(6-methoxypyridin-2-yl)-2H-indazole-5-carboxamide hydrochloride]
23 | 3 | 211 nM | COc1cccc(NC(=O)c2cc(OC)c3nn(C4CCOCC4)cc3c2)n1.Cl [Example 16, 7-Methoxy-N-(6-methoxypyridin-2-yl)-2-(tetrahydro-2H-pyran-4-yl)-2H-indazole-5-carboxamide hydrochloride]
24 | 0.7 | 6.3 nM | COc1cc2nn(C3CCOCC3)cc2cc1C(=O)Nc1cccc(C(F)F)n1.Cl [Example 24, N-(6-(difluoromethyl)pyridin-2-yl)-6-methoxy-2-(tetrahydro-2H-pyran-4-yl)-2H-indazole-5-carboxamide Hydrochloride]
25 | 0.6 | 0.3 nM | CC(C)Oc1cc2nn(C3CCOCC3)cc2cc1C(=O)Nc1cccc(C(F)F)n1.Cl [Example 25, N-(6-(difluoromethyl)pyridin-2-yl)-6-isopropoxy-2-(tetrahydro-2H-pyran-4-yl)-2H-indazole-5-carboxamide hydrochloride]
